System: fulvestrant-resistant MCF7:5C-FR cells
Assay: Fulvestrant-resistant breast cancer cell viability (cell proliferation) assay
Format: cell-based
Settings: 120 h, growth inhibition in fulvestrant-resistant MCF-7:CFR cells, 120 hrs
Description: For the cell proliferation assay, the fulvestrant-resistant MCF7:5C-FR cells were seeded at about 2000 to about 2500/well in 96-well plates. The next day, compounds were add to the cells at desired serial concentrations form 3 nM to 10 uM. A final 0.1% (v/v) DMSO was used as vehicle control and 1 uM JQ1 was used as positive. The cell were grown in the normal culture condition for 120 hrs. Then the Hoechst 33342 dye were add to each well at a final concentration of 5 μg/ml, and put back to the incubator at 37 C for 90 min. The plates were scanned immediately after the incubation with Celigo (Nexcelcom Biocesnse) for the fluorescence of the nuclear using DAPI channel, and the cell number was counted thought the analysis function of the Celigo software. The normalized cell number to the vehicle control was used to represent the cell proliferation. […] N.D.=Not determined.

Row | IC50 [nM] | Compound
1 | < 200 | Cn1cc(-c2cc(NS(C)(=O)=O)c3ncn(Cc4ccc(F)cc4)c3c2)c2ccnc(O)c21 [Compound 38, N-(1-(4-fluorobenzyl)-6-(7-hydroxy-1-methyl-1H-pyrrolo[2,3-c]pyridin-3-yl)-1H-benzo[d]imidazol-4-yl)methanesulfonamide]
2 | < 1000 | Cn1cc(-c2nc3c(NS(C)(=O)=O)cccc3n2Cc2ccc(F)cc2)c2ccnc(O)c21 [Compound 39, N-(1-(4-fluorobenzyl)-2-(7-hydroxy-1-methyl-1H-pyrrolo[2,3-c]pyridin-3-yl)-1H-benzo[d]imidazol-4-yl)methanesulfonamide]
3 | < 1000 | CCS(=O)(=O)Nc1cccc2c1nc(-c1cn(C)c3c(O)nccc13)n2Cc1ccc(F)cc1 [Compound 40, N-(1-(4-fluorobenzyl)-2-(7-hydroxy-1-methyl-1H-pyrrolo[2,3-c]pyridin-3-yl)-1H-benzo[d]imidazol-4-yl)ethanesulfonamide]
4 | < 1000 | CCS(=O)(=O)Nc1cccc2c1nc(-c1cn(C)c3c(O)nccc13)n2Cc1ccc(F)cc1C [Compound 41, N-(1-(4-fluoro-2-methylbenzyl)-2-(7-hydroxy-1-methyl-1H-pyrrolo[2,3-c]pyridin-3-yl)-1H-benzo[d]imidazol-4-yl)ethanesulfonamide]
5 | < 1000 | CCS(=O)(=O)Nc1cccc2c1nc(-c1cn(C)c3c(O)nccc13)n2Cc1c(C)cc(F)cc1C [Compound 42, N-(1-(4-fluoro-2,6-dimethylbenzyl)-2-(7-hydroxy-1-methyl-1H-pyrrolo[2,3-c]pyridin-3-yl)-1H-benzo[d]imidazol-4-yl)ethanesulfonamide]
6 | < 1000 | CCS(=O)(=O)Nc1cccc2c1nc(-c1cn(C)c3c(O)nccc13)n2Cc1ccc(F)cc1F [Compound 43, N-(1-(2,4-difluorobenzyl)-2-(7-hydroxy-1-methyl-1H-pyrrolo[2,3-c]pyridin-3-yl)-1H-benzo[d]imidazol-4-yl)ethanesulfonamide]
7 | > 100 | CCS(=O)(=O)Nc1cc(-c2cn(C)c3c(O)nccc23)cc2c1cnn2Cc1cccc2ccsc12 [Compound 44, N-(1-(benzo[b]thiophen-7-ylmethyl)-6-(7-hydroxy-1-methyl-1H-pyrrolo[2,3-c]pyridin-3-yl)-1H-indazol-4-yl)ethanesulfonamide]
8 | > 100 | CCS(=O)(=O)Nc1cc(-c2cn(C)c3c(O)nccc23)cc2c1cnn2Cc1cccc2c1ccn2C [Compound 45, N-(6-(7-hydroxy-1-methyl-1H-pyrrolo[2,3-c]pyridin-3-yl)-1-((1-methyl-1H-indol-4-yl)methyl)-1H-indazol-4-yl)ethanesulfonamide]
9 | < 1000 | Cn1cc(-c2cc(NS(=O)(=O)C3CC3)c3cnn(Cc4ccccc4)c3c2)c2ccnc(O)c21 [Compound 46, N-(1-benzyl-6-(7-hydroxy-1-methyl-1H-pyrrolo[2,3-c]pyridin-3-yl)-1H-indazol-4-yl)cyclopropanesulfonamide]
10 | < 1000 | CCS(=O)(=O)Nc1cc(-c2cn(C)c3c(O)nccc23)cc2c1ccn2Cc1cccc(Cl)c1Cl [Compound 47, N-(1-(2,3-dichlorobenzyl)-6-(7-hydroxy-1-methyl-1H-pyrrolo[2,3-c]pyridin-3-yl)-1H-indol-4-yl)ethanesulfonamide]
11 | < 1000 | CCS(=O)(=O)Nc1cc(-c2cn(C)c3c(O)nccc23)cc2c1ccn2Cc1cccc(F)c1F [Compound 48, N-(1-(2,3-difluorobenzyl)-6-(7-hydroxy-1-methyl-1H-pyrrolo[2,3-c]pyridin-3-yl)-1H-indol-4-yl)ethanesulfonamide]
12 | < 1000 | CCS(=O)(=O)Nc1cc(-c2cn(C)c3c(O)nccc23)cc2c1ccn2Cc1ccccc1 [Compound 49, N-(1-benzyl-6-(7-hydroxy-1-methyl-1H-pyrrolo[2,3-c]pyridin-3-yl)-1H-indol-4-yl)ethanesulfonamide]
13 | < 1000 | CCS(=O)(=O)Nc1cc(-c2cn(C)c3c(O)nccc23)cc2c1ccn2Cc1ccc(Cl)c(Cl)c1 [Compound 50, N-(1-(3,4-dichlorobenzyl)-6-(7-hydroxy-1-methyl-1H-pyrrolo[2,3-c]pyridin-3-yl)-1H-indol-4-yl)ethanesulfonamide]
14 | < 1000 | CCS(=O)(=O)Nc1cc(-c2cn(C)c3c(O)nccc23)cc2c1ccn2Cc1cc(Cl)ccc1OC [Compound 51, N-(1-(5-chloro-2-methoxybenzyl)-6-(7-hydroxy-1-methyl-1H-pyrrolo[2,3-c]pyridin-3-yl)-1H-indol-4-yl)ethanesulfonamide]
15 | < 1000 | CCS(=O)(=O)Nc1cc(-c2cn(C)c3c(O)nccc23)cc2c1ccn2Cc1cc(Cl)ccc1Cl [Compound 52, N-(1-(2,5-dichlorobenzyl)-6-(7-hydroxy-1-methyl-1H-pyrrolo[2,3-c]pyridin-3-yl)-1H-indol-4-yl)ethanesulfonamide]
16 | < 1000 | CCS(=O)(=O)Nc1cc(-c2cn(C)c3c(O)nccc23)cc2c1ccn2Cc1cccc2ccsc12 [Compound 53, N-(1-(benzo[b]thiophen-7-ylmethyl)-6-(7-hydroxy-1-methyl-1H-pyrrolo[2,3-c]pyridin-3-yl)-1H-indol-4-yl)ethanesulfonamide]
17 | > 100 | CCS(=O)(=O)Nc1cc(-c2cn(C)c3c(O)nccc23)cc2c1ccn2Cc1ccc(O)c(Cl)c1 [Compound 54, N-(1-(3-chloro-4-hydroxybenzyl)-6-(7-hydroxy-1-methyl-1H-pyrrolo[2,3-c]pyridin-3-yl)-1H-indol-4-yl)ethanesulfonamide]
18 | > 100 | CCS(=O)(=O)Nc1cc(-c2cn(C)c3c(O)nccc23)cc2c1ccn2Cc1cc(Cl)c(O)cc1C [Compound 55, N-(1-(5-chloro-4-hydroxy-2-methylbenzyl)-6-(7-hydroxy-1-methyl-1H-pyrrolo[2,3-c]pyridin-3-yl)-1H-indol-4-yl)ethanesulfonamide]
19 | > 100 | CCS(=O)(=O)Nc1cc(-c2cn(C)c3c(O)nccc23)cc2c1ccn2Cc1cc(Cl)cc(OCCN(C)C)c1 [Compound 56, N-(1-(3-chloro-5-(2-(dimethylamino)ethoxy)benzyl)-6-(7-hydroxy-1-methyl-1H-pyrrolo[2,3-c]pyridin-3-yl)-1H-indol-4-yl)ethanesulfonamide]
20 | > 100 | CCS(=O)(=O)Nc1cc(-c2cn(C)c3c(O)nccc23)cc2c1ccn2Cc1cc(Cl)cc(CCN(C)C)c1 [Compound 57, N-(1-(3-chloro-5-(2-(dimethylamino)ethyl)benzyl)-6-(7-hydroxy-1-methyl-1H-pyrrolo[2,3-c]pyridin-3-yl)-1H-indol-4-yl)ethanesulfonamide]
21 | < 1000 | CCS(=O)(=O)Nc1cc(-c2cn(C)c3c(O)nccc23)cc2c1ccn2Cc1ccc(C#N)cc1 [Compound 58, N-(1-(4-cyanobenzyl)-6-(7-hydroxy-1-methyl-1H-pyrrolo[2,3-c]pyridin-3-yl)-1H-indol-4-yl)ethanesulfonamide]
22 | > 100 | CCS(=O)(=O)Nc1cc(-c2cn(C)c3c(O)nccc23)cc2c1ccn2Cc1ccccc1C(F)(F)F [Compound 59, N-(6-(7-hydroxy-1-methyl-1H-pyrrolo[2,3-c]pyridin-3-yl)-1-(2-(trifluoromethyl)benzyl)-1H-indol-4-yl)ethanesulfonamide]
23 | > 100 | CCS(=O)(=O)Nc1cccc2c1nc(-c1cn(C)c3c(O)nccc13)n2Cc1ccccc1 [Compound 60, N-(1-benzyl-2-(7-hydroxy-1-methyl-1H-pyrrolo[2,3-c]pyridin-3-yl)-1H-benzo[d]imidazol-4-yl)ethanesulfonamide]
